# “And” between values parts separate entries of the source, which are not always exact repeats. Equal entries are not always repeated. “Also recorded” adds a separate entry of the source. Where two headings read alike, the source gives them in different places.
# Key:
# advanced solid tumors = test: Objective tumor response; assay type: in vivo, human
# serum Pi = test: Post hoc hyperphosphatemia assessment with phosphate-binding therapy; assay type: in vivo, human
# [1] = for RAUC0–last / RCmax: ratio
# [2] = system: patients with advanced solid tumors; details: global phase I study, 64% Caucasian patients; cited from earlier work
# clinical = details: human, plasma, oral; for AUC(0-inf): AUC0–inf; for AUC(0-t): AUC0–last
# [3] = system: cancer cell lines harboring various FGFR gene abnormalities; details: cited from earlier work
# [4] = FGFR‐abnormal patients with GC, All patients (n = 21)
# [5] = FGFR‐abnormal patients with GC, FGRF2 CN <10 (n = 10)
# [6] = FGFR‐abnormal patients with GC, FGRF2 CN ≥10 (n = 11)
# [7] = Futibatinib regimen QD (n = 43)
# [8] = Futibatinib regimen TIW (n = 39)
# [9] = With FGF/FGFR abnormalities (n = 52)
# [10] = Without FGF/FGFR abnormalities or unknown (n = 30)
# [11] = 40 QD patients treated with phosphate-binding therapy
# [12] = Week 3 (day 21), QD 20 mg, n = 2, mean
# [13] = Week 3, TIW 36 mg, n = 3, mean (standard deviation)
# [14] = Week 3, TIW 56 mg, n = 6, mean (standard deviation)
# [15] = Week 3, TIW 80 mg, n = 5, mean (standard deviation)
# [16] = Week 3, TIW 120 mg, n = 3, mean (standard deviation)
# [17] = Week 3, TIW 160 mg, n = 4, mean (standard deviation)
# [18] = 16 mg, Day 1, QD 16 mg, n = 3, mean (standard deviation)
# [19] = 16 mg, Week 3, TIW 16 mg, n = 1
# [20] = 20 mg, Day 1, QD 20 mg, n = 7, mean (standard deviation)
# [21] = 20 mg, Week 3 (day 21), QD 20 mg, n = 2, mean
# [22] = 24 mg, Week 3, TIW 24 mg, n = 1
compound,measurement,setting,value
C=CC(=O)N1CC[C@H](n2nc(C#Cc3cc(OC)cc(OC)c3)c3c(N)ncnc32)C1 [futibatinib],Best response CR,advanced solid tumors; [4],0 (0.0) n (%)
same,Best response NE,advanced solid tumors; [4],2 (9.5) n (%)
same,Best response PD,advanced solid tumors; [4],12 (57.1) n (%)
same,Best response PR,advanced solid tumors; [4],4 (19.0) n (%)
same,Best response SD,advanced solid tumors; [4],3 (14.3) n (%)
same,DCR (95% CI),advanced solid tumors; [4],33.3 (14.6–57.0) %
same,ORR (95% CI),advanced solid tumors; [4],19.0 (5.4–41.9) %
same,Best response CR,advanced solid tumors; [5],0 (0.0) n (%)
same,Best response NE,advanced solid tumors; [5],2 (20.0) n (%)
same,Best response PD,advanced solid tumors; [5],7 (70.0) n (%)
same,Best response PR,advanced solid tumors; [5],0 (0.0) n (%)
same,Best response SD,advanced solid tumors; [5],1 (10.0) n (%)
same,DCR (95% CI),advanced solid tumors; [5],10.0 (0.3–44.5) %
same,ORR (95% CI),advanced solid tumors; [5],0 (0–30.8) %
same,Best response CR,advanced solid tumors; [6],0 (0.0) n (%)
same,Best response NE,advanced solid tumors; [6],0 (0.0) n (%)
same,Best response PD,advanced solid tumors; [6],5 (45.5) n (%)
same,Best response PR,advanced solid tumors; [6],4 (36.4) n (%)
same,Best response SD,advanced solid tumors; [6],2 (18.2) n (%)
same,DCR (95% CI),advanced solid tumors; [6],54.5 (23.4–83.3) %
same,ORR (95% CI),advanced solid tumors; [6],36.4 (10.9–69.2) %
same,Best response CR,advanced solid tumors; [7],0 (0.0) n (%)
same,Best response NE,advanced solid tumors; [7],4 (9.3) n (%)
same,Best response PD,advanced solid tumors; [7],23 (53.5) n (%)
same,Best response PR,advanced solid tumors; [7],5 (11.6) n (%)
same,Best response SD,advanced solid tumors; [7],11 (25.6) n (%)
same,DCR (95% CI),advanced solid tumors; [7],37.2 (23.0–53.3) %
same,ORR (95% CI),advanced solid tumors; [7],11.6 (3.9–25.1) %
same,Best response CR,advanced solid tumors; [8],0 (0.0) n (%)
same,Best response NE,advanced solid tumors; [8],5 (12.8) n (%)
same,Best response PD,advanced solid tumors; [8],23 (59.0) n (%)
same,Best response PR,advanced solid tumors; [8],1 (2.6) n (%)
same,Best response SD,advanced solid tumors; [8],10 (25.6) n (%)
same,DCR (95% CI),advanced solid tumors; [8],28.2 (15.0–44.9) %
same,ORR (95% CI),advanced solid tumors; [8],2.6 (0.1–13.5) %
same,Patients with best response of confirmed PR,advanced solid tumors; GC patients with FGFR2 CN <10,0/10
same,Patients with best response of confirmed PR,advanced solid tumors; GC patients with FGFR2 CN ≥10,4/11
same,Best response CR,advanced solid tumors; Total (n = 82),0 (0.0) n (%)
same,Best response NE,advanced solid tumors; Total (n = 82),9 (11.0) n (%)
same,Best response PD,advanced solid tumors; Total (n = 82),46 (56.1) n (%)
same,Best response SD,advanced solid tumors; Total (n = 82),21 n (%) and 21 (25.6) n (%)
same,DCR (95% CI),advanced solid tumors; Total (n = 82),32.9 (22.9–44.2) %
same,ORR (95% CI),advanced solid tumors; Total (n = 82),7.3 (2.7–15.2) %
same,Best response CR,advanced solid tumors; [9],0 (0.0) n (%)
same,Best response NE,advanced solid tumors; [9],6 (11.5) n (%)
same,Best response PD,advanced solid tumors; [9],27 (51.9) n (%)
same,Best response PR,advanced solid tumors; [9],6 (11.5) n (%)
same,Best response SD,advanced solid tumors; [9],13 (25.0) n (%)
same,DCR (95% CI),advanced solid tumors; [9],36.5 (23.6–51.0) %
same,ORR (95% CI),advanced solid tumors; [9],11.5 (4.4–23.4) %
same,Best response CR,advanced solid tumors; [10],0 (0.0) n (%)
same,Best response NE,advanced solid tumors; [10],3 (10.0) n (%)
same,Best response PD,advanced solid tumors; [10],19 (63.3) n (%)
same,Best response PR,advanced solid tumors; [10],0 (0.0) n (%)
same,Best response SD,advanced solid tumors; [10],8 (26.7) n (%)
same,DCR (95% CI),advanced solid tumors; [10],26.7 (12.3–45.9) %
same,ORR (95% CI),advanced solid tumors; [10],0 (0–11.6) %
same,Patients with confirmed PR,advanced solid tumors; patients with GC evaluated for response,4/21
same,Futibatinib dose interruption,serum Pi; [11],30%
same,Futibatinib dose reduction,serum Pi; [11],12.5%
same,Safety concerns regardless of presence or absence of phosphate-binding therapy,serum Pi; futibatinib QD,No safety concerns were identified
same,Patients achieving the target serum Pi level,serum Pi; futibatinib dose reduction after starting phosphate-binding therapy (15 patients),86.7%
same,Hyperphosphatemia events leading to discontinuation of futibatinib,serum Pi; in vivo,not leading to futibatinib discontinuation; also recorded: none of the hyperphosphatemia events led to discontinuation of futibatinib
same,Patients achieving the target serum Pi level,serum Pi; no dose reduction after starting phosphate-binding therapy (10/20),50.0%
same,Cmax,"[1]; Day 1, TIW 80 mg, n = 6, mean (standard deviation)",866 (366) [42.3] ng/ml
same,t1/2,"[1]; Day 1, TIW 120 mg, n = 3, mean (standard deviation)",6.64 (1.08) [16.3] ^b h
same,Dose proportionality of Cmax and AUC,"[1]; TIW regimens, single and multiple administrations",dose‐proportional changes in Cmax and AUC0–last
same,Cmax,[1]; [12],173 (NC) [NC] ng/ml
same,RAUC0–last,[1]; [12],1.29 (NC) [NC]
same,RCmax,[1]; [12],0.91 (NC) [NC]
same,Cmax,"[1]; Week 3, TIW 8 mg, n = 1",167 (NC) [NC] ng/ml
same,t1/2,"[1]; Week 3, TIW 8 mg, n = 1",1.74 (NC) [NC] h
same,RAUC0–last,"[1]; Week 3, TIW 8 mg, n = 1",1.69 (NC) [NC]
same,RCmax,"[1]; Week 3, TIW 8 mg, n = 1",1.24 (NC) [NC]
same,t1/2,"[1]; Week 3, TIW 16 mg, n = 1",5.27 (NC) [NC] h
same,RAUC0–last,"[1]; Week 3, TIW 16 mg, n = 1",1.39 (NC) [NC]
same,RCmax,"[1]; Week 3, TIW 16 mg, n = 1",0.96 (NC) [NC]
same,RAUC0–last,"[1]; Week 3, TIW 24 mg, n = 1",0.80 (NC) [NC]
same,RCmax,"[1]; Week 3, TIW 24 mg, n = 1",0.72 (NC) [NC]
same,RAUC0–last,[1]; [13],1.51 (0.47) [30.9]
same,RCmax,[1]; [13],0.88 (0.44) [49.7]
same,RAUC0–last,[1]; [14],1.36 (0.44) [32.5]
same,RCmax,[1]; [14],1.25 (0.36) [28.8]
same,AUC0–last,[1]; [15],7394 (3731) [50.5] ng·h/ml
same,RAUC0–last,[1]; [15],1.25 (0.25) [20.0]
same,RCmax,[1]; [15],0.96 (0.09) [9.1]
same,RAUC0–last,[1]; [16],1.27 (0.29) [23.1]
same,RCmax,[1]; [16],1.02 (0.34) [33.2]
same,RAUC0–last,[1]; [17],1.54 (0.64) [41.6]
same,RCmax,[1]; [17],1.05 (0.82) [78.2]
same,Renal excretion of unchanged futibatinib,[1]; in vivo,negligible
same,Dose proportionality of Cmax and AUC,[2],statistically dose‐proportional between 4 mg and 24 mg QD
same,AUC(0-inf),"clinical; 8 mg, Day 1, TIW 8 mg, n = 1",390 ng·h/mL
same,AUC(0-inf),"clinical; 8 mg, Week 3, TIW 8 mg, n = 1",663 ng·h/mL
same,AUC(0-t),"clinical; 8 mg, Day 1, TIW 8 mg, n = 1",387 ng·h/mL
same,AUC(0-t),"clinical; 8 mg, Week 3, TIW 8 mg, n = 1",653 ng·h/mL
same,Cmax,"clinical; 8 mg, Day 1, TIW 8 mg, n = 1",135 ng/mL
same,Tmax,"clinical; 8 mg, Day 1, TIW 8 mg, n = 1, median",1.87 h
same,half-life,"clinical; 8 mg, t1/2, Day 1, TIW 8 mg, n = 1",1.58 h
same,AUC(0-inf),clinical; [18],1020 ng·h/mL
same,AUC(0-inf),"clinical; 16 mg, Day 1, TIW 16 mg, n = 1",1190 ng·h/mL
same,AUC(0-inf),clinical; [19],1580 ng·h/mL
same,AUC(0-t),clinical; [18],1010 ng·h/mL
same,AUC(0-t),"clinical; 16 mg, Day 1, TIW 16 mg, n = 1",1140 ng·h/mL
same,AUC(0-t),clinical; [19],1580 ng·h/mL
same,Cmax,clinical; [18],235 ng/mL
same,Cmax,"clinical; 16 mg, Day 1, TIW 16 mg, n = 1",189 ng/mL
same,Cmax,clinical; [19],182 ng/mL
same,Tmax,"clinical; 16 mg, Day 1, QD 16 mg, n = 3, median (minimum, maximum)",0.95 h
same,Tmax,"clinical; 16 mg, Day 1, TIW 16 mg, n = 1, median",1.95 h
same,Tmax,"clinical; 16 mg, Week 3, TIW 16 mg, n = 1, median",2.9 h
same,half-life,"clinical; 16 mg, t1/2, Day 1, QD 16 mg, n = 3, mean (standard deviation)",2.68 h
same,half-life,"clinical; 16 mg, t1/2, Day 1, TIW 16 mg, n = 1",5.72 h
same,AUC(0-inf),clinical; [20],983 ng·h/mL
same,AUC(0-inf),clinical; [21],729 ng·h/mL
same,AUC(0-t),clinical; [20],977 ng·h/mL
same,AUC(0-t),clinical; [21],727 ng·h/mL
same,Cmax,clinical; [20],253 ng/mL
same,half-life,"clinical; 20 mg, t1/2, Day 1, QD 20 mg, n = 7, mean (standard deviation)",2.18 h
same,half-life,"clinical; 20 mg, t1/2, Week 3 (day 21), QD 20 mg, n = 2, mean",3.05 h
same,AUC(0-inf),"clinical; 24 mg, Day 1, TIW 24 mg, n = 1",623 ng·h/mL
same,AUC(0-inf),clinical; [22],502 ng·h/mL
same,AUC(0-t),"clinical; 24 mg, Day 1, TIW 24 mg, n = 1",621 ng·h/mL
same,AUC(0-t),clinical; [22],499 ng·h/mL
same,Cmax,"clinical; 24 mg, Day 1, TIW 24 mg, n = 1",204 ng/mL
same,Cmax,clinical; [22],146 ng/mL
same,Tmax,"clinical; 24 mg, Day 1, TIW 24 mg, n = 1, median",1.95 h
same,Tmax,"clinical; 24 mg, Week 3, TIW 24 mg, n = 1, median",3.98 h
same,half-life,"clinical; 24 mg, t1/2, Day 1, TIW 24 mg, n = 1",1.55 h
same,half-life,"clinical; 24 mg, t1/2, Week 3, TIW 24 mg, n = 1",1.47 h
same,AUC(0-inf),"clinical; 36 mg, Week 3, TIW 36 mg, n = 3, mean",2160 ng·h/mL
same,half-life,"clinical; 36 mg, t1/2, Week 3, TIW 36 mg, n = 2, mean",3.64 h
same,Susceptibility to resistance development,[3],low susceptibility to resistance development
